Assay results: article PMC7504417 (International Journal of Molecular Sciences, 2020)
pKd: −log10 of the molar value. Counter-ions that a name gives are not always drawn. Like-named read-outs stand apart in the source and are kept apart here.

Assays:
[1] = biological target: oxidized glutathione (Glut OX, ECG-ECG); test: UV spectrophotometry binding to oxidized glutathione; details: UV spectrophotometry; single value, or first (higher-affinity) value of a cell a/b; read-out: Kd (µM) Glut OX ECG-ECG
receptor peptides tested = test: UV spectrophotometry binding to all peptides tested (summary)
[2] = biological target: reduced glutathione (Glut RED, ECG); test: UV spectrophotometry binding to reduced glutathione; details: UV spectrophotometry at 200 nm, pH 7.00 phosphate-buffered saline, ca. 24 °C
[3] = biological target: Adrenergic Receptor (beta 2 adrenergic receptor peptides) (Homo sapiens, UniProt P07550); test: Overall pattern of binding: Adrenergic Receptor peptides
Chain of Adrenergic Receptor (beta 2 adrenergic receptor peptides) (P07550 with tags, fused parts or gaps): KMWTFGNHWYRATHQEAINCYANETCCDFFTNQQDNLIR
Experimental: (§1) The method used was ultraviolet spectrophotometry, which is a sensitive way to test for the binding of pairs of molecules. Binding data obtained using this method have previously been validated by direct comparison to results of nuclear magnetic resonance, circular dichroism, capillary electrophoresis, and other physicochemical methods (e.g., [51, 87, 88, 89, 90]).
(§2) For each individual test, the concentration of the stock solution was calculated and then diluted to a 10 µM solution.
(§3) Thus, the final concentration of receptor peptide in each well varied from 0.5 mM to 0.05 pM while the other compound was held fixed at 5 µM.
(§4) The method of calculating binding constants was to measure the absorbance (minus the absorbance of the buffer) of 100 µL of each compound by itself diluted by 100 µL of buffer at a given wavelength (in this case at 200 nm) at the range of concentrations utilized in the experiments. The average of the resulting values is calculated. (If the experiments are run properly, there is very little variance—a couple of percent. If there was more variance than that, the experiment was re-run.) An “expected” value is calculated following Beer’s law, by adding the absorbances of each pair of compounds (peptide plus small molecule). […]
(§5) The difference between the “expected” and actual values was determined at each concentration of the varied compound. […]

[4] = biological target: Opioid Receptor (mu opioid receptor peptides) (Homo sapiens, UniProt P35372); test: Overall pattern of binding: Opioid Receptor peptides
Chain of Opioid Receptor (mu opioid receptor peptides) (P35372 with tags, fused parts or gaps): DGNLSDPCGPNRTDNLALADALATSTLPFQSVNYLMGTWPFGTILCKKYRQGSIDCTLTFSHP
Experimental: as §1, §2, §3
The method of calculating binding constants was to measure the absorbance (minus the absorbance of the buffer) of 100 µL of each compound by itself diluted by 100 µL of buffer at a given wavelength (in this case at 200 nm) at the range of concentrations utilized in the experiments. The average of the resulting values is calculated. (If the experiments are run properly, there is very little variance—a couple of percent. If there was more variance than that, the experiment was re-run.) An “expected” value is calculated following Beer’s law, by adding the absorbances of each pair of compounds (peptide plus small molecule). The actual chemical combinations of these molecules was then run under identical conditions.
The difference between the “expected” and actual values was determined at each concentration of the varied compound. This difference was then plotted against the concentration of the varied compound. […] The binding constant was approximated by using the inflection point of the binding curve (i.e., the point at which the dissociation and association of the two molecules was equal). […] All data were analyzed using Microsoft Excel.
Because the resulting absorbances are the differences between the independently measured absorbances, it is not possible to calculate error bars or to perform statistics on the resulting values.

[5] = biological target: T1, histamine 1 receptor peptide HIHR 177–183 RDKCETD (Homo sapiens, UniProt P35367, E177R); test: biochemical; format: binding; details: UV spectrophotometry; read-out: Kd (µM) HIHR 177–183 RDKCETD
T1 construct: HIHR 177–183 RDKCETD; purchased RS Synthesis (Louisville, KY, USA); host or cells: chemical synthesis

[6] = biological target: T2, beta 2 adrenergic receptor peptide B2AR 183–185 NCY (Homo sapiens, UniProt P07550); test: biochemical; format: binding; details: Figure 4
T2 construct: B2AR 183–185 NCY; purchased RS Synthesis (Louisville, KY, USA); host or cells: chemical synthesis

[7] = biological target: T3, histamine 1 receptor peptide H1HR 105–108 SMDY (Homo sapiens, UniProt P35367); test: biochemical; format: binding; details: UV spectrophotometry; single value, or first (higher-affinity) value of a cell a/b; read-out: Kd (µM) H1HR 105–108 SMDY
T3 construct: H1HR 105–108 SMDY; purchased RS Synthesis (Louisville, KY, USA); host or cells: chemical synthesis

[8] = biological target: T4, histamine 1 receptor peptide H1HR 77–87 GAVVMPMNILYL (Homo sapiens, UniProt P35367); test: biochemical; format: binding; details: UV spectrophotometry; single value, or first (higher-affinity) value of a cell a/b; read-out: Kd (µM) H1HR 77–87 […]
T4 construct: H1HR 77–87 GAVVMPMNILYL; purchased RS Synthesis (Louisville, KY, USA); host or cells: chemical synthesis

[9] = biological target: Histamine Receptor (histamine 1 receptor peptides) (Homo sapiens, UniProt P35367); test: biochemical; format: binding; details: first symbol of the cell
Chain of Histamine Receptor (histamine 1 receptor peptides) (P35367 with tags, fused parts or gaps): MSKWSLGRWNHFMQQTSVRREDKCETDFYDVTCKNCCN

[10] = biological target: Dopamine Receptor (dopamine 1 receptor peptides) (Homo sapiens, UniProt P21728); test: Overall pattern of binding: Dopamine Receptor peptides
Chain of Dopamine Receptor (dopamine 1 receptor peptides) (P21728 with tags, fused parts or gaps): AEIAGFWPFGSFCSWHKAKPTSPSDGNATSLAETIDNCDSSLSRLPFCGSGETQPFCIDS
Experimental: as §1, §2, §3, §4, §5

Glutathione = test: Overall pattern of binding: Glutathione (reduced and oxidized)
[11] = biological target: dopamine 1 receptor peptide D1DR 96–98 FCN (Homo sapiens, UniProt P21728); test: biochemical
[12] = intrathecal delivery; cited from earlier work
[13] = biological target: T5, beta 2 adrenergic receptor peptide B2AR 97–103 KMWTFGN (Homo sapiens, UniProt P07550); test: biochemical; format: binding
T5 construct: B2AR 97–103 KMWTFGN; purchased RS Synthesis (Louisville, KY, USA); host or cells: chemical synthesis

[14] = biological target: T6, beta 2 adrenergic receptor peptide B2AR 105–108 WCEF (Homo sapiens, UniProt P07550); test: biochemical; format: binding
T6 construct: B2AR 105–108 WCEF; purchased RS Synthesis (Louisville, KY, USA); host or cells: chemical synthesis

[15] = tested on: glutathione S-transferase A-5 and CYP3A2 expression in rat liver; design: method as in PMID 20487198; details: exposure to opioid; cited from earlier work

Compound	Kd [1]	observable affinity of the peptides tested, in words (receptor peptides tested)	Kd [2]	pKd ([4]; first symbol of the cell)	Kd [5]	binding to adrenergic receptor peptide 183–185 (NCY), in words [6]	Kd [7]	Kd [8]	pKd [9]	also measured
CC(=O)OCC[N+](C)(C)C [Acetylcholine, acetylcholine]	> 1000 µM	none of the peptides tested had observable affinity	> 1000 µM	< 4.22	> 1000 µM	No binding was observed	> 1000 µM	> 1000 µM	< 4.22	pKd ([3]; first symbol of the cell): < 4.22; pKd ([10]; first symbol of the cell): < 4.22
OC[C@H]1OC(O)[C@H](O)[C@@H](O)[C@@H]1O (stereo partly drawn) [Glucose, glucose]	> 1000 µM	none of the peptides tested had observable affinity	> 1000 µM	–	> 1000 µM	No binding was observed	–	–	< 4.22	binding to either reduced or oxidized glutathione, in words (Glutathione): do not bind appreciably; pKd [3]: < 4.22; pKd [4]: < 4.22; pKd [10]: < 4.22
CN1CC[C@]23c4c5ccc(O)c4O[C@H]2[C@@H](O)C=C[C@H]3[C@H]1C5 [Morphine, morphine sulfate]	–	–	–	–	–	–	–	–	–	pKd [11]: 4.60; transient cerebrospinal fluid concentrations [12]: approximately 25 µM
NCCc1c[nH]c2ccc(O)cc12 [Serotonin, serotonin]	> 1000 µM	–	70 µM	< 4.22	60 µM	–	120 µM	50 µM	–	pKd [13]: 3.37; pKd [14]: 4.35
COc1ccc2c3c1O[C@H]1C(=O)CC[C@@]4(O)[C@@H](C2)N(C)CC[C@]314 [oxycodone]	–	–	–	–	–	–	–	–	–	expression in rat liver of glutathione S-transferase A-5 [15]: greater than six-fold increase; expression of the cytochrome enzyme CYP3A2 [15]: decreased seven-fold
